Assay results taken from US20220023269A1, “Methods Of Treating Diabetes In Severe Insulin-Resistant Diabetic Subjects” (Balticgruppen Bio AB, priority 2018, published 2022).

Legend:
[1] = tested on: obese, diabetic hIAPPtg mice; assay: Diet switch in hIAPPtg mice: HFD 9 w then test material-HFD (2 mg/g) 7 w; assay type: in vivo
Method: 10-11 weeks old male hIAPPtg; CBA mice and wild type littermates were fed HFD for 9 weeks. After 9 weeks mice were either sacrificed or randomised into two groups either continuing on HFD or switched to test material-HFD (2 mg/g) for an additional 7 weeks.
Food intake was measured weekly by giving each cage 200 g pellet. After one week, the amount of pellets consumed were calculated and adjusted according to the number of animals/cage. Body weight was measured weekly. Body composition was assessed using EchoMRI.
(§1) Islets amyloid was quantification was done on pancreatic tissues isolated from hIAPPtg mice on HFD for 16 weeks (n=7 mice/n=69 islets) and hIAPPtg mice on HFD for 9 weeks then switched to test material-HFD (2 mg/g) for 7 weeks (n=5 mice/n=48 islets). Isolated pancreases was direct frozen, sectioned, and amyloid content quantified by staining with Thioflavin-S as previously described (Reference 2). For ex vivo analyses, islets were isolated by collagenase digestion of the pancreas (Reference 1) and cultured in RPMI medium 1640 (GIBCO #11879-0) supplemented with 11.1 or 22.2 mM glucose (GIBCO #A24940-01), 1% fetal bovine serum (GIBCO #10500), 50 U; μg/ml Pen/Strep (Gibco #15140-122), 10 mM Hepes (Umeå University, Laboratory medicine), 1 mM sodium pyruvate (GIBCO #11360-039) and 0.1% 2-Mercaptoethanol (Sigma #M3148). 0, 2.5, 5.0, and 10 μM test material were added from day 0 of culture. For assessing the effect of autophagy inhibition, 3-Methyladenine (3-MA, Aldrich #M9281), 5 μM, was added from day 0 of culture in combination with test material, 5 μM. The control contained DMSO 1:2000. Medium and compounds were changed every second day. After 92 hours of treatment islets were embedded, sectioned and amyloid content quantified by staining with Thioflavin-S as previously described (Reference 2). A minimum of 3 independent experiments was evaluated.

Wistar rats = assay: 6 months oral gavage in Wistar rats; assay type: in vivo; conditions: 100, 300 and 600 mg/kg/day gavage, RD, vs vehicle
Method: 8-10 weeks old Wistar male and female rats were treated by oral gavage with vehicle or test material at 100, 300 or 600 mg/kg/day for 6 months.

CBA mice on HFD = assay: Indirect calorimetry measurements; assay type: in vivo; conditions: 11 w
Method: VO2 and VCO2 rates were measured during 3 days by indirect calorimetry in TSE PhenoMaster Calorimetry metabolic cages (TSE Systems GmbH). The respiratory exchange ratio (RER) was calculated as a ratio of VCO2 produced/VO2 consumed. […] Energy expenditure (EE) was calculated as the product of the calorific value (CV) of oxygen [=3.815+(1.232×RER)] and the volume of O2 consumed, i.e. [EE=CV×VO2 (kcal/h)] and related to lean weight.

hIAPPtg islets = assay: Ex vivo islet amyloid assay; assay type: cell-based, mouse; conditions: 22 mM glucose
Method: as §1

[2] = tested on: AMPK in human hepatocytes; assay: AMPK activation assay in human hepatocytes; assay type: cell-based; conditions: cells preferentially expressing β2 subunit
Method: (§2) All cell lines were lysed in 0.1 M Tris-HCl, pH 6.8, 2% SDS, 10 mM sodium fluoride (SIGMA #S7920), 10 mM β-glycerophosphate (SIGMA #G6376), and 1 mM sodium vanadate (SIGMA #72060) and supernatant collected after 1 minute at 14,000 rpm. Islets (human and mouse) were lysed in 0.1 M Tris-HCl, pH 6.8, 2% SDS, protease inhibitor (Roche #04 693 124 001) and phosphatase inhibitor (Roche #04 906 837 001). Right calf muscle, heart, iWAT, and interscapular BAT was crushed in a pestle using liquid nitrogen and homogenised in ice cold RIPA buffer (150 mM sodium chloride (SIGMA #S7653), 1.0% NP40 (USB), 0.5% sodium deoxycholate (SIGMA #D6750), 0.1% SDS, 50 mM Tris pH 8.0, 20 mM sodium pyrophosphate (SIGMA #71515), 10 mM sodium fluoride, 10 mM β-glycerolphosphate, 1 mM sodium vanadate and protease inhibitor cocktail (Roche #04693124001), 1 tablet/10 ml lysis buffer). The supernatant was collected after 2 min at 14,000 rpm. This procedure was repeated until all fat was eliminated and the supernatant was clear, at 4° C. Samples were analysed on 4-15% polyacrylamide gels. Values were normalised toward AMPKα, β-Actin, GAPDH or the respective non-phosphorylated counterpart.
(§3) Table 3 contains origin of cell lines, growth conditions and settings for activation of AMPK via the test material. […]

[3] = tested on: AMPK in Wi-38 human lung fibroblast cells; assay: AMPK activation assay in Wi-38 cells (immunoblot); assay type: cell-based; conditions: 2.5, 5 or 10 μM, 16 hours; dose-dependent
Method: as §2, §3

[4] = 0.8 mg/g in HFD, light and dark periods

O=C(Nc1nc(=O)n(Cc2ccc(Cl)cc2)s1)c1ccc(Cl)cc1 [test material, 4-chloro-N-[2-[(4-chlorophenyl)methyl]-3-oxo-1,2,4-thiadiazol-5-yl]benzamide]
body fat ([1]; 2 mg/g): induced body weight and body fat loss | body weight ([1]; 2 mg/g): induced body weight and body fat loss | amount of islet amyloid formed ([1]; 2 mg/g for 7 w, vs continued HFD): significantly reduced | established hyperglycemia (fasted blood glucose) ([1]; 2 mg/g, 6 w after the switch): reverted | established hyperinsulinemia (fasted insulin) ([1]; 2 mg/g, 6 w after the switch): reverted | established insulin resistance (HOMA-IR) ([1]; 2 mg/g, 6 w after the switch): reverted | heart/brain weight (Wistar rats): did not show increased heart/brain weight | energy expenditure (EE) (CBA mice on HFD; [4]): significantly increased | oxygen consumption (VO2) (CBA mice on HFD; [4]): significantly increased | respiratory exchange ratio (RER) (CBA mice on HFD; 0.8 mg/g, day 2 light period, all 3 days dark period): significantly decreased | preventive effect on amyloid formation in presence of autophagy inhibitor 3-MA (hIAPPtg islets; 5.0 μM test material + 5.0 μM 3-MA): significantly attenuated | amyloid formation (Thio-S+ deposits) (hIAPPtg islets; 2.5, 5.0, 10 μM, dose-dependent): attenuated amyloid formation | pAMPK [2]: increased pAMPK | levels of pAMPK (p-T172) [3]: increased | p-S79 ACC (pACC) levels [3]: increased
